Source: US4049898A (priority 1975, dated 1977)

Columns and labels:
[1] = forms otherwise stable and appropriate; background statement; cited from earlier work
fungus organisms = conditions: background statement; cited from earlier work
physchem = conditions: water, pH 2, water

Molecule	extent of solubilization in methanol (solubility in methanol; 100 mg added to 750 ml methanol) [%]	extent of solubility in methanol at pH 9.5 (solubility in methanol; 100 mg in 80 ml methanol, pH adjusted to 9.5 with triethylamine) [%]	solubility in methanol at pH 9.5 (in words)	water solubility (background, in words) [1]	antifungal properties (fungus organisms)	development of resistant strains or forms (fungus organisms)	solubility (physchem) [µg/mL]	amount soluble in 750 ml of methanol (solubility in methanol; 750 ml methanol) [mg]
Amphotericin B-Calcium-Oxalic Acid Complex [Example 1]	40	35						
C[C@@H]1[C@H](O)[C@@H](C)/C=C/C=C/C=C/C=C/C=C/C=C/C=C/[C@H](O[C@@H]2O[C@H](C)[C@@H](O)[C@H](N)[C@@H]2O)C[C@@H]2O[C@](O)(C[C@@H](O)C[C@@H](O)[C@H](O)CC[C@@H](O)C[C@@H](O)CC(=O)O[C@H]1C)C[C@H](O)[C@H]2C(=O)O [amphotericin B]			completely soluble	lack of adequate water solubility	powerful antifungal properties	apparent inability of fungus organisms to develop readily any strains or forms that are resistant to amphotericin B	< 1000	100
